From the supplement of paper PMC11061612

Key:
[1] = system: NCI-H720 (Other Solid Carcinomas); test: combination Emax (second highest fraction inhibited in the dose matrix, 72 h); higher = more inhibition; extreme values may be limits of the assay
In short: (§1)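 Cell lines in DMEM/F12 or RPMI with 10% FBS were plated in 1536-well plates, held 24 hours at 37°C, 5% CO2, then given two-drug dose matrices for 72 hours (DMSO typically 0.2%). Viability was read by CellTiter-Glo 2.0 luminescence and scaled as inhibition from 0 (vehicle wells) to 1 (blank wells). Combination Emax is the second-highest inhibition in the matrix; Bliss excess is observed combination effect minus expected EA + EB − EA·EB, EA and EB being single-agent effects.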

[2] = system: KMRC-20 (Kidney Carcinoma); test: Bliss excess, mean over the matrix (fraction); higher = more synergy
In short: as §1

BE2-M17 (Neuroblastoma) = test: as above
In short: as §1

[3] = system: KYAE-1 (Esophageal Adenocarcinoma); test: as above
In short: as §1

[4] = system: NCI-H209 (Small Cell Lung Carcinoma); test: as above
In short: as §1

[5] = system: SW1573 (Lung Adenocarcinoma); test: as above
In short: as §1

[6] = system: NCI-H720 (Other Solid Carcinomas); test: as above
In short: as §1

[7] = system: HeLa (Cervical Carcinoma); test: as above
In short: as §1

NCI-H2722 (Mesothelioma) = test: as above
In short: as §1

[8] = system: OV-56 (Ovarian Carcinoma); test: as above
In short: as §1
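For Bliss excess, mean over the matrix in this document: after 72 h of two-drug dosing.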

Cc1cc2ncnn2cc1Nc1ncc2c(n1)n(C1CCOCC1)c(=O)n2C [AZD7648] + CN(C)CCCOc1ccc(-c2ccc3ncc4c(c3c2)n(C2CCOCC2)c(=O)n4C)cn1 [AZD0156] (first compound max 10 µM, 7x7, partner max 1 µM)
combination Emax [1]: 0.296 | Bliss excess [2]: -0.0232 | Bliss excess (BE2-M17 (Neuroblastoma)): -0.0026 | Bliss excess [3]: 0.0007 | Bliss excess [4]: 0.048 | Bliss excess [5]: -0.0114 | Bliss excess [6]: -0.0328 | Bliss excess [7]: 0.0376 | Bliss excess (NCI-H2722 (Mesothelioma)): -0.0023 | Bliss excess [8]: 0.0081

Cc1cc2ncnn2cc1Nc1ncc2c(n1)n(C1CCOCC1)c(=O)n2C [AZD7648] + CCN(CCO)CCCOc1ccc2c(Nc3cc(CC(=O)Nc4cccc(F)c4)[nH]n3)ncnc2c1 [AZD2811] (first compound max 10 µM, 7x7, partner max 1 µM)
combination Emax [1]: 0.756 | Bliss excess [2]: 0.026 | Bliss excess (BE2-M17 (Neuroblastoma)): 0.01 | Bliss excess [3]: -0.002 | Bliss excess [4]: 0.0054 | Bliss excess [5]: 0.0327 | Bliss excess [6]: 0.0621 | Bliss excess [7]: 0.0511 | Bliss excess (NCI-H2722 (Mesothelioma)): 0.0323 | Bliss excess [8]: 0.0307

COc1cc2c(cc1OCCCCCOc1cc3c(cc1OC)C(=O)N1C=C(C)C[C@H]1C=N3)N=C[C@@H]1CC(C)=CN1C2=O [SG3199] + O=C(c1cc(Cc2n[nH]c(=O)c3ccccc23)ccc1F)N1CCN(C(=O)C2CC2)CC1 [Olaparib] (first compound max 0.001 µM, 7x7, partner max 10 µM)
combination Emax [1]: 0.144 | Bliss excess [2]: -0.0192 | Bliss excess (BE2-M17 (Neuroblastoma)): 0.0474 | Bliss excess [3]: -0.0195 | Bliss excess [4]: 0.0051 | Bliss excess [5]: -0.0312 | Bliss excess [6]: 0.0077 | Bliss excess [7]: -0.0301 | Bliss excess (NCI-H2722 (Mesothelioma)): -0.0459 | Bliss excess [8]: -0.0297

Cc1cc2ncnn2cc1Nc1ncc2c(n1)n(C1CCOCC1)c(=O)n2C [AZD7648] + O=C(c1cc(Cc2n[nH]c(=O)c3ccccc23)ccc1F)N1CCN(C(=O)C2CC2)CC1 [Olaparib] (first compound max 10 µM, 7x7, partner max 10 µM)
combination Emax [1]: 0.316 | Bliss excess [2]: -0.0594 | Bliss excess (BE2-M17 (Neuroblastoma)): 0.0754 | Bliss excess [3]: -0.0362 | Bliss excess [4]: 0.0055 | Bliss excess [5]: -0.0158 | Bliss excess [6]: -0.0244 | Bliss excess [7]: -0.0016 | Bliss excess (NCI-H2722 (Mesothelioma)): -0.0445 | Bliss excess [8]: -0.0157
